In patent US6638919B2, “Antiviral purine derivatives” (University College Cardiff Consultants Limited, priority 2001, dated 2003):
Where a name gives a salt, the structure may show the parent alone.

Assays:
Assay type in all cases: cell-based
[1] = system: HIV-1; assay: Inhibition of HIV-1 giant cell formation in CEM cells; conditions: Table III; EC50 for inhibition of HIV1 in CEM cells; read-out: HIV1 CBM
Method: (§1) Then 100 μL of the infected cell suspension was transferred to microtiter plate wells and mixed with 100 μL of the appropriate dilutions of the test compounds.
HIV 1 CEM: EC50 in μM for inhibition of HIV1 in CEM cells

[2] = system: HIV-2; assay: Inhibition of HIV-2 giant cell formation in CEM cells; conditions: Table III; EC50 for inhibition of HIV-2 in CEM cells; read-out: HIV2 CBM
Method: as §1
HIV1 CEM: EC50 in μM for inhibition of […] in CEM cells.
HIV2 CEM: EC50 in μM for inhibition of HIV-2 in CEM cells

[3] = system: CEM cells; assay: Toxicity to mock-infected CEM cells (CC50); conditions: Table III; toxicity to CEM cells; read-out: CC50 CEN
Method: as §1
CC50 CEM: CC50 in μM for toxicity to CEM cells.
CC50 CEM: CC50 μM for toxicity to CEM cells

[4] = system: MSV; assay: Inhibition of MSV; conditions: Table III; inhibition of MSV; read-out: EC50 MSV
Method: EC50 MSV: EC50 μM for inhibition of MSV

[5] = system: MSV; assay: Minimum cytotoxic concentration in MSV assay; set-up: unit not given here; conditions: Table III
Description: MCC MSV: minimum cytotoxic concentration in MSV essay.

SMILES: C[C@H](NP(=O)(O)OC[C@@H]1C=C[C@H](n2cnc3c(NC4CC4)nc(N)nc32)C1)C(=O)O [Compound 1540, (1S,4R)-4-(2-amino-6-cyclopropylamino-9H-purin-9-yl)-2-cyclopentene-1-methanol O-(L-alaninyl)-phosphate diammonium salt]
- EC50 [1]: 1200 nM
- EC50 [2]: 950 nM
- CC50 [3]: 115000 nM

SMILES: C[C@H](NP(=O)(OC[C@@H]1C=C[C@H](n2cnc3c(NC4CC4)nc(N)nc32)C1)Oc1ccccc1)C(=O)OCc1ccccc1 (stereo partly drawn) [Compound 1582, (1S,4R)-4-(2-amino-6-cyclopropylamino-9H-purin-9-yl)-2-cyclopentene-1-methanol O-[phenyl-(enzoxy-L-alaninyl)]-phosphate]
- EC50 [1]: 83 nM
- EC50 [2]: 110 nM
- CC50 [3]: 12500 nM

SMILES: COC(=O)[C@@H](C)NP(=O)(OC[C@@H]1C=C[C@H](n2cnc3c(NC4CC4)nc(N)nc32)C1)Oc1ccccc1 (stereo partly drawn) [Compound 1583, (1 S,4R)-4-(2-amino-6-cyclopropyiamino-9H-purin-9-yl)-2-cyclopentene-1-methanol O-[phenyl-(methoxy-D-alaninyl)]-phosphate]
- EC50 [1]: 1380 nM
- EC50 [2]: 4500 nM
- CC50 [3]: 64300 nM

SMILES: COC(=O)C(C)(C)NP(=O)(OC[C@@H]1C=C[C@H](n2cnc3c(NC4CC4)nc(N)nc32)C1)Oc1ccccc1 (stereo partly drawn) [Compound 1584, (1S,4R)-4-(2-amino-6-cyclopropylamino-9H-purin-9-yl)-2-cyclopentene-1-methanol O-[phenyl-(methoxy-α,adimethylglycinyl)]-phosphate]
- EC50 [1]: 67 nM
- EC50 [2]: 60 nM
- CC50 [3]: 8910 nM

SMILES: COC(=O)[C@H](Cc1ccccc1)NP(=O)(OC[C@@H]1C=C[C@H](n2cnc3c(NC4CC4)nc(N)nc32)C1)Oc1ccccc1 (stereo partly drawn) [Compound 1585, (1,S,4R)-4-(2-amino-6-cyclopropylamino-9H-purin-9-yl)-2-cyclopentee-1-methain O-[phenyl-(methoxy-L-phenylalaninyl)]-phosphate]
- EC50 [1]: 1420 nM
- EC50 [2]: 2130 nM
- CC50 [3]: 36100 nM

SMILES: COC(=O)CNP(=O)(OC[C@@H]1C=C[C@H](n2cnc3c(NC4CC4)nc(N)nc32)C1)Oc1ccccc1 (stereo partly drawn) [Compound 1588, (1 S,4R)-4-(2-amino-6-cyclopropylamino-9H-purin-9-yl)-2-cyclopentene-1-methanol O-[phenyl-(methoxy-glycinyl)]-phosphate]
- EC50 [1]: 1780 nM
- EC50 [2]: 2000 nM
- CC50 [3]: ≥ 100000 nM

SMILES: COC(=O)C[C@H](NP(=O)(OC[C@@H]1C=C[C@H](n2cnc3c(NC4CC4)nc(N)nc32)C1)Oc1ccccc1)C(=O)OC (stereo partly drawn) [Compound 1589, (1S,4R)-4-(2-amino-6-cyclopropylamin9H-purin-9-yl)-2-cyclopentene-1-methanol O-[phenyl-(L-asparic acid dimethyl ester)]-phosphate]
- EC50 [1]: 1420 nM
- EC50 [2]: 1900 nM
- CC50 [3]: 44200 nM

SMILES: C[C@H](NP(=O)(OC[C@@H]1C=C[C@H](n2cnc3c(NC4CC4)nc(N)nc32)C1)Oc1ccccc1)C(=O)OC(C)(C)C (stereo partly drawn) [Compound 1645, (1S,4R)-4-(2-amino-6-cyclopropylamino-9H-purin-9-yl)-2-cyclopentene-1-methanol O-(phenyl-tertbutyloxy-L-alaninyl)-phosphate]
- EC50 [1]: 3700 nM
- EC50 [2]: 6000 nM
- CC50 [3]: 33000 nM
- EC50 [4]: 11700 nM
- MCCMSV [5]: >20

SMILES: CCCOC(=O)[C@H](C)NP(=O)(OC[C@@H]1C=C[C@H](n2cnc3c(NC4CC4)nc(N)nc32)C1)Oc1ccccc1 (stereo partly drawn) [Compound 1646, (1S,4R)-4-(2-amino-6-cyclopropylamino-9H-purin-9-Sl)-2-cyclopentene-1-methanol O-Phenyl-(n-propoxy-L-alaninyl)-phosphate]
- EC50 [1]: 93 nM
- EC50 [2]: 120 nM
- CC50 [3]: 9000 nM
- EC50 [4]: 2000 nM
- MCCMSV [5]: >4

SMILES: CCCCOC(=O)[C@H](C)NP(=O)(OC[C@@H]1C=C[C@H](n2cnc3c(NC4CC4)nc(N)nc32)C1)Oc1ccccc1 (stereo partly drawn) [Compound 1647, (1S,4R)-4-(2-amino-6-cyclopropylamino-9H-purin-9-yl)-2-cyclopentene-1-methanol O-Phenyl-(n-butoxy-L-alaninyl)-phosphate]
- EC50 [1]: 85 nM
- EC50 [2]: 170 nM
- CC50 [3]: 8230 nM
- EC50 [4]: 620 nM
- MCCMSV [5]: >4

SMILES: CC(C)OC(=O)[C@H](C)NP(=O)(OC[C@@H]1C=C[C@H](n2cnc3c(NC4CC4)nc(N)nc32)C1)Oc1ccccc1 (stereo partly drawn) [Compound 1661, (1S,4R)-4-(2-amino-6-cyclopropylamino-9H-purin-9-yl)-2-cyclopentene-1-methanol O-Phenyl-(i-propoxy-L-alaninyl)-phosphate]
- EC50 [1]: 500 nM
- EC50 [2]: 850 nM
- CC50 [3]: 9180 nM
- EC50 [4]: 2750 nM
- MCCMSV [5]: ≧20

SMILES: CC(C)COC(=O)[C@H](C)NP(=O)(OC[C@@H]1C=C[C@H](n2cnc3c(NC4CC4)nc(N)nc32)C1)Oc1ccccc1 (stereo partly drawn) [Compound 1672, (1S,4R)-4-(2-:amino-6-cyclopropylamino-9H-purin-9-yl-2-cyclopentene-1-methanol O-(phenyl (2-methylpropyl)oxyalaninyl phosphate)]
- EC50 [1]: 90 nM
- EC50 [2]: 100 nM
- CC50 [3]: 14400 nM
- EC50 [4]: 1980 nM
- MCCMSV [5]: >4

SMILES: C[C@H](NP(=O)(OC[C@@H]1C=C[C@H](n2cnc3c(NC4CC4)nc(N)nc32)C1)Oc1ccccc1)C(=O)OCC(C)(C)C (stereo partly drawn) [Compound 1673, (1S ,4R)-442-amino6-cyclopropylamino-9H-purin-9-y)-2-cyclopentene-1-methanol O-(phenyl (2,2-dimethylpropyl)oxyalaninyl phosphate)]
- EC50 [1]: 150 nM
- EC50 [2]: 180 nM
- CC50 [3]: 8070 nM
- EC50 [4]: 2920 nM
- MCCMSV [5]: >4

SMILES: CC(C)CCOC(=O)C(C)NP(=O)(OC[C@@H]1C=C[C@H](n2cnc3c(NC4CC4)nc(N)nc32)C1)Oc1ccccc1 (stereo partly drawn) [Compound 1674, (1S,4R)-4-(2-amino-6-cyclopropylamino-9H-purin-9-yl)-2-cyclopentene-1-methanol O-(phenyl (3-methylbutyl)oxyalaninyl phosphate)]
- EC50 [2]: 250 nM
- CC50 [3]: 10700 nM
- EC50 [4]: 2040 nM
- MCCMSV [5]: >4

SMILES: CCCCCOC(=O)[C@H](C)NP(=O)(OC[C@@H]1C=C[C@H](n2cnc3c(NC4CC4)nc(N)nc32)C1)Oc1ccccc1 (stereo partly drawn) [Compound 1706, (1S,4R)-4-(2-amino-6-cyclopropylamino-9H-purin-9-yl)-2-cyclopentene-1-methanol 0-Phenyl-(n-pentyloxy-L-alaninyl)-phosphate]
- EC50 [1]: 65 nM
- EC50 [2]: 80 nM
- CC50 [3]: 16400 nM
- EC50 [4]: 1450 nM
- MCCMSV [5]: >4

SMILES: C[C@H](NP(=O)(OC[C@@H]1C=C[C@H](n2cnc3c(NC4CC4)nc(N)nc32)C1)Oc1ccccc1)C(=O)OC1CCCCC1 (stereo partly drawn) [Compound 1707, (1S,4R)-4-(2-amino-6-cyclopropylamino-9H-purin-9-yl)-2-cyclopeniene-1-methanol O-Phenyl-(c-hexyloxy-L-alaninyl)-phosphate]
- EC50 [1]: 330 nM
- EC50 [2]: 250 nM
- CC50 [3]: 10200 nM
- EC50 [4]: 2840 nM
- MCCMSV [5]: >4

SMILES: C[C@H](NP(=O)(OC[C@@H]1C=C[C@H](n2cnc3c(NC4CC4)nc(N)nc32)C1)Oc1ccccc1)C(=O)OCC1CCCCC1 (stereo partly drawn) [Compound 1708, (1S,4R)-4-(2-amino-6-cyclopropylamino-9H-purin-9-yl)-2cyclopentene-1-methanol O-Phenyl-(cyclobexane-methoxy-L-alaninyl)-phosphate]
- EC50 [1]: 150 nM
- EC50 [2]: 160 nM
- CC50 [3]: 15100 nM
- EC50 [4]: 1300 nM
- MCCMSV [5]: >4

SMILES: COC(=O)CC[C@H](NP(=O)(OC[C@@H]1C=C[C@H](n2cnc3c(NC4CC4)nc(N)nc32)C1)Oc1ccccc1)C(=O)OC (stereo partly drawn) [Compound 1749, (1S,4R)-4-(2-amino6-cyclopropylamino-9H-purin-9-yl)-2-cyclopentene-1-methanol O-(phenyldimethoxy-L-glutamyl phosphate)]
- EC50 [1]: 3500 nM
- EC50 [2]: 5330 nM
- CC50 [3]: 36900 nM

SMILES: COC(=O)[C@H](Cc1c[nH]c2ccccc12)NP(=O)(OC[C@@H]1C=C[C@H](n2cnc3c(NC4CC4)nc(N)nc32)C1)Oc1ccccc1 (stereo partly drawn) [Compound 1750, (1S,4R)-4-(2-amino-6-cyclopropylamino-9H-purin-9-yl)-2cyclopentene-1-methanol O-(phenylmethoxy-L-tryptophanyl phosphate)]
- EC50 [1]: 3000 nM
- EC50 [2]: 3670 nM
- CC50 [3]: 18300 nM

SMILES: CC[C@H](C)[C@H](NP(=O)(OC[C@@H]1C=C[C@H](n2cnc3c(NC4CC4)nc(N)nc32)C1)Oc1ccccc1)C(=O)OC (stereo partly drawn) [Compound 1751, (1S,4R)-4-(2-amino-6-cyclpropylamino-9H purin-9-yl)-2-cyclopentene-1-methanol O-(phenylmethoxy-L-isoleucinyl phosphate)]
- EC50 [1]: 7000 nM
- EC50 [2]: 5330 nM
- CC50 [3]: 24200 nM

SMILES: C[C@H](NP(=O)(OC[C@@H]1C=C[C@H](n2cnc3c(NC4CC4)nc(N)nc32)C1)Oc1ccccc1)C(=O)OC1CCCCCC1 (stereo partly drawn) [Compound 1752, (1S,4R)-4-(2-amino-6-cyclopropylamino-9-H-purin-9-yl)2-cyclopentene-1-methanol O-(phenyl (cycloheptanyl)oxyalaninyl phosphate)]
- EC50 [1]: 1300 nM
- EC50 [2]: 1050 nM
- CC50 [3]: 6320 nM
